Like-named read-outs stand apart in the source and are kept apart here.
Legend:
[1] = Single dose, randomized fed vs. fasted study of the effect of food on bioavailability (pharmacokinetics); assay type: in vivo, healthy subjects; conditions: for Relative bioavailability, AUC (tf) Ratio Estimate / Relative bioavailability, AUC(l) Ratio Estimate / Relative bioavailability, Cmax Ratio Estimate: fed vs fasted; for increase of Cmax relative to fasted state / increase of mean AUCs relative to fasted state: based on ratio estimates; for half-life: read-out: t½ (mean) (converted)
Description: A single dose, randomized, two-treatment (fed vs. fasted) study was conducted to assess the effect of food on bioavailability of a compound of the present invention (SCH 503034 or Compound Ia). A single oral dose of 600 mg. of compound of Formula Ia was administered to two groups of healthy subjects. Group A received the dose after an overnight 10-hour fast; Group B received the dose about twenty minutes after consuming a high fat breakfast of 850 calories having 53.8 g fat (57% of calories from fat) or low fat breakfast of 451 calories. Blood samples were collected immediately prior to dosing (time zero) and at times 0.5, 1, 1.5, 2, 2.5, 3, 4, 6, 8, 12, 24, 36, 48, and 72 hours post dose. Results of measurement of mean maximum concentration (Cmax) of compound of Formula Ia in serum in ng/ml are shown in Table 1 and FIG. 1 (graph of mean plasma concentration of the compound versus Time). Calculations of AUC(tf) (area under the curve at time final), AUC(I) (area under the curve extrapolated to infinity), t½ (time at which one-half of the compound has disappeared from the blood), Tmax (time at which maximum serum concentration is achieved), CL/F (clearance divided by bioavailability), and Vd/F (volume of distribution divided by bioavailability) are made according to standard formulas known to one skilled in the art of drug metabolism and pharmacokintics.

[2] = Serum levels after two weeks of 400 mg bid or tid dosing; assay type: in vivo, healthy subjects; conditions: 400 mg tid for two weeks; day 14
Description: Healthy subjects were dosed with two regimens of 400 mg. of a compound of Formula 1a, twice per day (bid) or three times per day (tid) for a period of two weeks. Blood samples were taken on day 14 in the morning at time zero (pre-dose) and at 12 hours post-dose (for the bid regimen) or 8 hours post-dose (for the tid regimen). As shown in the box plots, with tid dosing a metabolism effect is observed. Serum levels of the drug are higher at time zero, 8 hours after the previous evening dose, as compared to serum levels of the drug when measured 8 hours following the morning dose.

[3] = human, serum, po, 600 mg, single oral dose 600 mg, fasted, balanced data
[4] = human, serum, po, 600 mg, single oral dose 600 mg, fed (high fat diet), balanced data
[5] = human, serum, po, 600 mg, single oral dose 600 mg, fed (non fat diet), balanced data

CC(C)(C)NC(=O)N[C@H](C(=O)N1C[C@H]2[C@@H]([C@H]1C(=O)NC(CC1CCC1)C(=O)C(N)=O)C2(C)C)C(C)(C)C (mixture of isomers) [SCH 503034]
Relative bioavailability, AUC (tf) Ratio Estimate ([1]; compare B/A, balanced data): 317%
Relative bioavailability, AUC(l) Ratio Estimate ([1]; compare B/A, balanced data): 276%
Relative bioavailability, Cmax Ratio Estimate ([1]; compare B/A, balanced data): 223%
Relative bioavailability, AUC (tf) Ratio Estimate ([1]; compare C/A, balanced data): 182%
Relative bioavailability, AUC(l) Ratio Estimate ([1]; compare C/A, balanced data): 167%
Relative bioavailability, Cmax Ratio Estimate ([1]; compare C/A, balanced data): 129%
absorption lag time ([1]; fed state with high fat diet, in 8 of the 12 subjects who completed all three periods): 0.5 h
absorption lag time ([1]; fed state with non fat diet, 7 subjects): 0.5 h
increase of Cmax relative to fasted state ([1]; high fat diet): 123%
increase of mean AUCs relative to fasted state ([1]; high fat diet): over 200%
Cmax [1, 3]: 502 ng/mL
Vd/F [1, 3]: 4580 L
AUC ([1]; human, serum, po, 600 mg, single oral dose 600 mg, fasted, balanced data, read-out: AUC(l) (mean)): 1630 ng·h/mL
AUC ([1]; human, serum, po, 600 mg, single oral dose 600 mg, fasted, balanced data, read-out: AUC(tf) (mean)): 1560 ng·h/mL
Tmax ([1]; human, serum, po, 600 mg, single oral dose 600 mg, fasted, balanced data, read-out: Tmax, median (range)): 1.5 h
half-life [1, 3]: 7.61 h
Cmax [1, 4]: 1150 ng/mL
Vd/F [1, 4]: 418 L
AUC ([1]; human, serum, po, 600 mg, single oral dose 600 mg, fed (high fat diet), balanced data, read-out: AUC(l) (mean)): 4440 ng·h/mL
AUC ([1]; human, serum, po, 600 mg, single oral dose 600 mg, fed (high fat diet), balanced data, read-out: AUC(tf) (mean)): 5090 ng·h/mL
half-life [1, 4]: 2.01 h
Cmax [1, 5]: 639 ng/mL
Vd/F [1, 5]: 1140 L
AUC ([1]; human, serum, po, 600 mg, single oral dose 600 mg, fed (non fat diet), balanced data, read-out: AUC(l) (mean)): 2750 ng·h/mL
AUC ([1]; human, serum, po, 600 mg, single oral dose 600 mg, fed (non fat diet), balanced data, read-out: AUC(tf) (mean)): 3040 ng·h/mL
half-life [1, 5]: 3.2 h
increase of Cmax relative to fasted state ([1]; non fat diet): 29%
increase of mean AUCs relative to fasted state ([1]; non fat diet): about 100%
CL/F (mean) ([1]; single oral dose 600 mg, fasted, balanced data): 407 L/h
CL/F (mean) ([1]; single oral dose 600 mg, fed (high fat diet), balanced data): 144.0 L/h
CL/F (mean) ([1]; single oral dose 600 mg, fed (non fat diet), balanced data): 243 L/h
rate of absorption in the fed state (vs fasted) ([1]; single oral dose 600 mg, fed state): more slowly

CC(C)(C)NC(=O)N[C@H](C(=O)N1C[C@H]2[C@@H]([C@H]1C(=O)NC(CC1CCC1)C(=O)C(N)=O)C2(C)C)C(C)(C)C (stereo partly drawn) [compound of Formula 1a, (1R,5S)-N-[3-Amino-1-(Cyclobutylmethyl)-2,3-Dioxopropyl]-3-[2(S)-[[[(1,1-Dimethylethyl)Amino]Carbonyl]Amino]-3,3-Dimethyl-1-Oxobutyl]-6,6-Dimethyl-3-Azabicyclo[3.1.0]Hexan-2(S)-Carboxamide]
serum levels at time zero (8 hours after the previous evening dose) compared to 8 hours following the morning dose [2]: higher

From patent US8119602B2, “Administration of HCV protease inhibitors in combination with food to improve bioavailability” (Schering Corporation, priority 2005, dated 2012)
